The subject of assay [1] is Monographella nivalis (Microdochium nivale). Description: Monographella nivalis (Microdochium nivale) / liquid culture (foot rot cereals). It counts as cell-based. The settings on record: compared to untreated control. As for the experimental part:
Example B8: Monographella nivalis (Microdochium nivale)/Liquid Culture (Foot Rot Cereals) Conidia of the fungus from cryogenic storage are directly mixed into nutrient broth (PDB potato dextrose broth). After placing a (DMSO) solution of test compound into a microtiter plate (96-well format), the nutrient broth containing the fungal spores is added. The test plates are incubated at 24° C. and the inhibition of growth is determined photometrically 4 to 5 days after application.

For assay [2], the system named is Gibberella zeae (Fusarium graminearum). It counts as in vivo. The note with it: 200 ppm; wheat spikelet preventative; compared to untreated control.
The test system of assay [3] is Glomerella lagenarium (Colletotrichum lagenarium). Briefly: Glomerella lagenarium (Colletotrichum lagenarium) / liquid culture (anthracnose). The settings on record: Colletotrichum orbiculare, compared to untreated control. It counts as cell-based. How it is done: Example B3: Glomerella lagenarium (Colletotrichum lagenarium)/Liquid Culture (Anthracnose) Conidia of the fungus from cryogenic storage are directly mixed into nutrient broth (PDB potato dextrose broth). After placing a (DMSO) solution of test compound into a microtiter plate (96-well format), the nutrient broth containing the fungal spores is added. The test plates are incubated at 24° C. and the inhibition of growth is measured photometrically 3 to 4 days after application.

The next assay deals with Alternaria solani. Briefly: Alternaria solani / tomato / leaf disc (early blight). The class given is in vivo. The settings on record: foliar, compared to untreated control. How it is done: Example B1: Alternaria solani/Tomato/Leaf Disc (Early Blight) Tomato leaf disks cv. Baby are placed on agar in multiwell plates (24-well format) and sprayed with the formulated test compound diluted in water. The leaf disks are inoculated with a spore suspension of the fungus 2 days after application. The inoculated leaf disks are incubated at 23° C./21° C.

The test system of assay [4] is Mycosphaerella graminicola (Septoria tritici). Briefly: Mycosphaerella graminicola (Septoria tritici) / liquid culture (Septoria blotch). The settings on record: Zymoseptoria tritici, compared to untreated control. It counts as cell-based. How it is done: Example B15: Mycosphaerella graminicola (Septoria tritici)/Liquid Culture (Septoria Blotch) Conidia of the fungus from cryogenic storage are directly mixed into nutrient broth (PDB potato dextrose broth). After placing a (DMSO) solution of test compound into a microtiter plate (96-well format), the nutrient broth containing the fungal spores is added. The test plates are incubated at 24° C. and the inhibition of growth is determined photometrically 4 to 5 days after application.

Assay [5] relates to Mycosphaerella arachidis (Cercospora arachidicola). Description: Mycosphaerella arachidis (Cercospora arachidicola) / liquid culture (early leaf spot). The class given is cell-based. The settings on record: compared to untreated control. As for the experimental part: Example B9: Mycosphaerella arachidis (Cercospora arachidicola)/Liquid Culture (Early Leaf Spot) Conidia of the fungus from cryogenic storage are directly mixed into nutrient broth (PDB potato dextrose broth). After placing a (DMSO) solution of test compound into a microtiter plate (96-well format), the nutrient broth containing the fungal spores is added. The test plates are incubated at 24° C. and the inhibition of growth is determined photometrically 4 to 5 days after application.

Another assay relates to Pyrenophora teres. Briefly: Pyrenophora teres / barley / leaf disc preventative (net blotch). It counts as in vivo. The note with it: foliar, compared to untreated control. How it is done: Example B12: Pyrenophora teres/Barley/Leaf Disc Preventative (Net Blotch) Barley leaf segments cv. Hasso are placed on agar in a multiwell plate (24-well format) and sprayed with the formulated test compound diluted in water. The leaf segments are inoculated with a spore suspension of the fungus 2 days after application. The inoculated leaf segments are incubated at 20° C. and 65% rh under a light regime of 12 h light/12 h darkness in a climate cabinet and the activity of a compound is assessed as disease control compared to untreated when an appropriate level of disease damage appears in untreated check leaf segments (5 to 7 days after application).

Another assay concerns Pythium ultimum. Briefly: Pythium ultimum / liquid culture (seedling damping off). The class given is cell-based. The settings on record: 20 ppm, compared to untreated control. How it is done:
Example B13: Pythium ultimum/Liquid Culture (Seedling Damping Off) Mycelia fragments and oospores of a newly grown liquid culture of the fungus are directly mixed into nutrient broth (PDB potato dextrose broth). After placing a (DMSO) solution of test compound into a microtiter plate (96-well format), the nutrient broth containing the fungal mycelia/spore mixture is added. The test plates are incubated at 24° C. and the inhibition of growth is determined photometrically 2 to 3 days after application.

The next assay has as its system Phytophthora infestans. The class given is in vivo. The note with it: 200 ppm; tomato leaf disc preventative; compared to untreated control.

For `Cc1c([C@H]2CN(C(=O)CCCCCC(F)F)[C@@H](C)c3ccccc32)cnn1C` [Compound P-46, 1-[(1S,4S)-4-(1,5-dimethylpyrazol-4-yl)-1-methyl-3,4-dihydro-1H-isoquinolin-2-yl]-7,7-difluoro-heptan-1-one], the inhibition of growth at 20 ppm in assay [1], in assay [3], in [4] and in assay [5] was no less than 80% in each case. In addition, in assay [2], the “control of Gibberella zeae” value is listed as “at least 80%”. Moreover, the pest or weed control at 200 ppm in the assay with Alternaria solani and in the assay on Pyrenophora teres was no less than 80% each time.
As for `Cc1c(C2CN(C(=O)CCc3ccc(F)cc3F)Cc3ccccc32)cnn1C` (centres unmarked) [Compound P-6, 3-(2,4-difluorophenyl)-1-[4-(1,5-dimethylpyrazol-4-yl)-3,4-dihydro-1H-isoquinolin-2-yl]propan-1-one], the “control of Pythium ultimum” value with Pythium ultimum was “at least 80%”. The pest or weed control at 200 ppm with Alternaria solani and in the assay with Pyrenophora teres was no less than 80% in each case. The inhibition of growth at 20 ppm in assay [4] and in assay [5] was no less than 80% throughout.
Regarding `CCCCCCC(=O)N1C[C@H](c2cnn(C)c2C)c2ccccc2[C@@H]1C` (racemic) [Compound P-11, 1-[rac-(1S,4S)-4-(1,5-dimethylpyrazol-4-yl)-1-methyl-3,4-dihydro-1H-isoquinolin-2-yl]heptan-1-one], the inhibition of growth at 20 ppm in assay [1], in assay [3], in assay [4] and in assay [5] was no less than 80% in each case. Also, the pest or weed control at 200 ppm in the assay with Alternaria solani and in the assay with Pyrenophora teres was no less than 80% in each case.
`Cc1c(C2CN(C(=O)CCC3CCCC3)Cc3ccccc32)cnn1C` (centres unmarked) [Compound P-17, 3-cyclopentyl-1-[4-(1,5-dimethylpyrazol-4-yl)-3,4-dihydro-1H-isoquinolin-2-yl]propan-1-one]: the “control of Phytophthora infestans” value in the assay on Phytophthora infestans is given as “at least 80%”. Further, the inhibition of growth at 20 ppm in [4] was no less than 80%.

The values are drawn from US20260193226A1, “MICROBIOCIDAL TETRAHYDROISOQUINOLINE DERIVATIVES” (SYNGENTA CROP PROTECTION AG, priority 2022, published 2026).
